According to patent US20090291857A1, “METHODS TO IDENTIFY INHIBITORS OF THE UNFOLDED PROTEIN RESPONSE” (THE BOARD OF TRUSTEES OF THE LELAND STANFORD JUNIOR …, priority 2006, published 2009):

Assays:
Grp78 = Grp78 immunoblot in HT1080 cells; format: cell-based, human; details: 2.5 μM, 16 hours (also 24 or 36 hours)
Procedure: Cells (2×10^6) were cultured in 10-cm dishes, collected using a cell scraper at 4° C., and lysed by addition of 150 μl cell lysis buffer [50 mM Tris pH 7.4, 150 mM NaCl, 10% glycerol, 0.5% Triton X-100. 0.5% NP-40, 2 mM Na3VO4, 20 mM beta-glycerophosphate, 10 mM NaF, 1 mM DTT, 1 mM PMSF). Lysates were centrifuged for 5 min at 10,000×g, and proteins (˜40 μg) were resolved by SDS-PAGE followed by semi-dry transfer to nitrocellulose membranes. Membranes were blocked in TBS-5% milk supplemented with 0.1% Tween-20. The blots were then probed overnight with relevant antibodies, washed, and incubated for 2 hours with species-specific secondary antibodies conjugated to horseradish peroxidase. After washing in block solution, immunoreactive material was detected by enhanced chemiluminescence (SuperSignal West Dura Extended, Pierce, Inc., Rockville, Ill.).
HT1080 cells were exposed to DMSO vehicle (lane 1), irestatin 9389 (2.5 μM; lane 2) for 16 hours or Tm (5 μg/ml; lane 3) for 8 hours. Following treatments, cells were harvested, lysed, and analyzed by immunoblotting using anti-Grp78 antibody (top) or anti-actin (bottom) as a loading control. […] Cell lysates were analyzed by Western immunoblotting using anti-IRE1α (bottom) or anti-phospho-IRE1α antibodies (top). […] Lysates were analyzed by Western blot using antisera specific for phospho-JNK1 (top) or total JNK1 (bottom). […]

[1] = Analysis of blood chemistry and cell composition; format: in vivo, mouse
Procedure: (§1) Complete blood counts (CBC's) and clinical chemistry panels were performed on blood obtained by cardiac puncture after euthanasia with CO2. Gross necropsies were performed, all major viscera were harvested, fixed in 10% buffered neutral formalin, routinely processed for paraffin embedding, and stained with hematoxylin and eosin (H&E). Sections were analyzed by a board-certified veterinary pathologist (DMB).
(§2) The increased sensitivity of irestatin-treated cells to hypoxic stress in vitro indicate that selective inhibition of IRE1α signaling could impact tumor growth. […] In contrast, XBP-1s was not detected in normal pancreas specimens (0/20), and infrequently observed in chronic pancreatitis (1/29) (FIG. 15). To explore the effects to irestatin 9389 in vivo, we first established animal dosing parameters using real-time bioluminescence imaging of SCID mice that had been implanted subcutaneously (s.c.) with tumor cells stably expressing the XBP-luciferase reporter. […] The XBP-luciferase signal returned to basal levels by 24 hours after treatment. […] (FIG. 16).

[2] = Histopathological analysis of major organs; format: in vivo, mouse; details: three doses, 50 mg/kg
Procedure: as §1
Pancreas and liver specimens recovered from mice treated with three doses of either vehicle (top) or irestatin 9389 (50 mg/kg; bottom) were sectioned and stained with hematoxylin and eosin.
as §2

[3] = Toxicity of increasing doses in SCID mice; format: in vivo
Procedure: Female 4-6 week-old SCID (B6.CB17) mice supplied by Stanford University Animal Facility were housed in the same facility (American Association of Laboratory Animal Care-approved) with 12 hour light cycles. Food and water were provided ad libitum. All experiments were approved by the institutional care and use committee. The potential toxicities of irestatin 9389 were examined in SCID mice injected i.p. once daily over 4 consecutive days with increasing doses of irestatin 9389 or vehicle control. […] For xenografts, 2×10^6 HT1080 fibrosarcoma cells were resuspended in 50-75 μl PBS and injected s.c. in the dorsal flanks of host mice. When the implanted tumors reached a mean volume of ˜150 mm^3, mice were randomly assigned into different treatment groups. Mice were dosed by i.p. bolus injection with either vehicle (50% DMSO, 20% cremophor EL, 30% ethanol) or irestatin 9389 (50 mg/kg). Tumors (6-8 per group) were measured every 2-4 days with calipers. Tumor volume was calculated using the formula [(W^2×L) 0.52] where W=width and L=length.

Cc1csc(NC(=O)CSc2nc3c(c(C(F)(F)F)c2C#N)CCC3)n1 [Compound 9389]
Grp78 levels (Grp78; listed as Irestatin 9389): does not modulate the expression of Grp78 | Grp78 levels (Grp78; listed as irestatin 9389): no effect on Grp78 levels | fasting blood glucose levels versus vehicle ([1]; 50 mg/kg): no significant difference | HCT ([1]; mean, irestatin-treated mice, complete blood count): 47% | Total Bilirubin ([1]; mean, irestatin-treated mice, terminal cardiac blood): 0.3 mg/dL | histopathology of all major organs versus vehicle [2]: no significant differences | toxicity of dosing regimen ([3]; SCID mice, i.p., 50-60 mg/kg): without apparent toxicity | dosing regimen of 50-60 mg/kg relative to LD50 ([3]; female, SCID (B6.CB17), mouse, in vivo, 4 days): 75 % of the LD50 value
